Here are results for 24 molecules from patent publication US10464911B2, “1,3,4-oxadiazole sulfamide derivative compounds as histone deacetylase 6 inhibitor, and the pharmaceutical composition comprising the same” (Chong Kun Dang Pharmaceutical Corp., priority 2015, dated 2019).

Structures can show the parent of a compound that is named as a salt.

This assay deals with human recombinant HDAC6 (Homo sapiens (Human), UniProt Q9UBN7). In words: HDAC6 enzyme activity inhibition assay (HDAC Fluorimetric Drug Discovery Kit). It is filed as biochemical. To be noted: for HDAC6 selectivity (fold): HDAC6 versus HDAC1; for IC50: human recombinant HDAC6, same protocol as HDAC1 test. As for the experimental part: In order to examine the HDAC6 selectivity of the compounds of formula I of the present invention by HDAC1 and HDAC6 enzymatic activity inhibition assays, an experiment was performed using a conventional substance as a control.
Chain of human recombinant HDAC6 (Q9UBN7 whole entry): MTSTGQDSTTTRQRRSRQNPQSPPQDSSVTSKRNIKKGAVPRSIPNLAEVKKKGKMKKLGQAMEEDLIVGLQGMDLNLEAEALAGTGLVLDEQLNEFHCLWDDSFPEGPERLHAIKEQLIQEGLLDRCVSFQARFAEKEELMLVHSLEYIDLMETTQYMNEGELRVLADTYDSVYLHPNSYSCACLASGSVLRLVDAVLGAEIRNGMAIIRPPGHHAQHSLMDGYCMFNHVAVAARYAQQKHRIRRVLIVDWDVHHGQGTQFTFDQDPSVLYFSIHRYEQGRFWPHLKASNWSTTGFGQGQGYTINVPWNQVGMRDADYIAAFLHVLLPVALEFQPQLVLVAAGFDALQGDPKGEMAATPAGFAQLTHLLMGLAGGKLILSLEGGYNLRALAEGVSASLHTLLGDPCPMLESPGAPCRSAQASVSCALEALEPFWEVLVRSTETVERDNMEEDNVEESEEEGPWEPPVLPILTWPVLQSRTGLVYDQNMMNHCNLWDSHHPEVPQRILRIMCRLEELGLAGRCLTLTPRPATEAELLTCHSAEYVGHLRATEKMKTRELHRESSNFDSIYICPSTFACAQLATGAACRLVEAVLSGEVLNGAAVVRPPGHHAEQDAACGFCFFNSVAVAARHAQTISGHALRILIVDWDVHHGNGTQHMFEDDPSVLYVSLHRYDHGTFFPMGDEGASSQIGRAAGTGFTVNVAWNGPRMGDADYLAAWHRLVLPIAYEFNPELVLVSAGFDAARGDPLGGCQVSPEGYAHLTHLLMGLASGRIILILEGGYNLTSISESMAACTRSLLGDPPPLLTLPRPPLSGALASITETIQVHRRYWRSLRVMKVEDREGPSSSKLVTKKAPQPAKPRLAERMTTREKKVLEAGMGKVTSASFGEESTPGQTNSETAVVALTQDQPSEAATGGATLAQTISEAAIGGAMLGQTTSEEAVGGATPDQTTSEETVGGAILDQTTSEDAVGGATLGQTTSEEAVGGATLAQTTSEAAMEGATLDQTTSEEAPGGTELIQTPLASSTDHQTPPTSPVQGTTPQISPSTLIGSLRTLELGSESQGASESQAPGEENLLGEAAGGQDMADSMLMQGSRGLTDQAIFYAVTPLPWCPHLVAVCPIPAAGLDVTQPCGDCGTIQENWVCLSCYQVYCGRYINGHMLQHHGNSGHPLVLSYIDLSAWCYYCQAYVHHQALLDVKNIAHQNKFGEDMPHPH
HDAC enzyme activity was measured using a HDAC Fluorimetric Drug Discovery Kit (BML-AK511, 516, Enzo Life Science). For the HDAC1 enzyme activity test, human recombinant HDAC1 (BML-SE456) was used as an enzyme source, and Fluor de Lys®-“SIRT1 (BNL-KI177) was used as a substrate. A 5-fold dilution of the compound was seeded into a 96-well plate, and then 0.3 μg of the enzyme and 10 μM of the substrate were added to each well of the plate and allowed to react at 30 for 60 minutes. Then, Fluor de Lys®-Developer II (BML-KI176) was added thereto and allowed to react for 30 minutes, after which the fluorescence value (Ex 360, Em 460) was measured using a multi-plate reader (Flexstation 3, Molecular Device). The HDAC6 enzyme was tested using human recombinant HDAC6 (382180) (Calbiochem) according to the same protocol as the HDAC1 enzyme activity test method. Based on the resulting values, each IC50 value was calculated using GraphPad Prism4.0 program.

In general, IC50 refers to the concentration that gives 50% inhibition. For the molecule `O=S(=O)(N1CCN(C2COC2)CC1)N(Cc1ccc(-c2nnc(C(F)F)o2)cc1)c1ccccc1` [Compound 11575, N-(4-(5-(difluoromethyl)-1,3,4-oxadiazol-2-yl)benzyl)-4-(oxetan-3-yl)-N-phenylpiperazine-1-sulfonamide], the “HDAC6 selectivity (fold)” value is given as 2083 fold and the IC50 turned out to be 48 nM.
For `CS(=O)(=O)N1CCN(S(=O)(=O)N(Cc2ccc(-c3nnc(C(F)(F)F)o3)cc2F)c2cccc(F)c2)CC1` [Compound 11310, N-(2-fluoro-4-(5-(trifluoromethyl)-1,3,4-oxadiazol-2-yl)benzyl)-N-(3-fluorophenyl)-4-(methylsulfonyl)piperazine-1-sulfonamide], the “HDAC6 selectivity (fold)” value is recorded as 1311 fold and the IC50 came out at 76 nM.
For `CS(=O)(=O)N1CCN(S(=O)(=O)N(Cc2ccc(-c3nnc(C(F)F)o3)cc2F)c2cccnc2)CC1` [Compound 11319, N-(4-(5-(difluoromethyl)-1,3,4-oxadiazol-2-yl)-2-fluorobenzyl)-4-(methylsulfonyl)-N-(pyridin-3-yl)piperazine-1-sulfonamide] the same measures were 1464 fold and 68 nM.
Consider `CC(=O)N1CCN(S(=O)(=O)N(Cc2ccc(-c3nnc(C(F)F)o3)cc2F)c2cccnc2)CC1` [Compound 11318, 4-acetyl-N-(4-(5-(difluoromethyl)-1,3,4-oxadiazol-2-yl)-2-fluorobenzyl)-N-(pyridin-3-yl)piperazine-1-sulfonamide], for which the “HDAC6 selectivity (fold)” value came to 2299 fold and the IC50 turned out to be 43 nM.
In the case of `C[C@H]1CN(S(=O)(=O)N(Cc2ccc(-c3nnc(C(F)F)o3)cn2)c2cccc(Cl)c2)CCN1C` [Compound 11829, (S)—N-(3-chlorophenyl)-N-((5-(5-(difluoromethyl)-1,3,4-oxadiazol-2-yl)pyridin-2-yl)methyl)-3,4-dimethylpiperazine-1-sulfonamide], the “HDAC6 selectivity (fold)” value stood at 3448 fold and the IC50 came out at 29 nM.
Consider `O=S(=O)(N1CCN(C2CCC2)CC1)N(Cc1ccc(-c2nnc(C(F)F)o2)cc1)c1ccccc1` [Compound 11674, 4-cyclobutyl-N-(4-(5-(difluoromethyl)-1,3,4-oxadiazol-2-yl)benzyl)-N-phenylpiperazine-1-sulfonamide], for which the “HDAC6 selectivity (fold)” value is given as 751 fold and the IC50 came to 133 nM.
The matching figures for `O=S(=O)(N1CCN(C2CCC2)CC1)N(Cc1ccc(-c2nnc(C(F)F)o2)cc1)c1ccc(F)c(Cl)c1` [Compound 11652, N-(3-chloro-4-fluorophenyl)-4-cyclobutyl-N-(4-(5-(difluoromethyl)-1,3,4-oxadiazol-2-yl)benzyl)piperazine-1-sulfonamide]: 422 fold and 237 nM.
The matching figures for `C[C@@H]1CN(S(=O)(=O)N(Cc2ccc(-c3nnc(C(F)F)o3)cn2)c2cccc(Cl)c2)CCN1C` [Compound 11825, (R)—N-(3-chlorophenyl)-N-((5-(5-(difluoromethyl)-1,3,4-oxadiazol-2-yl)pyridin-2-yl)methyl)-3,4-dimethylpiperazine-1-sulfonamide]: 2777 fold and 36 nM.
For the molecule `CC(C)N1CCN(S(=O)(=O)N(Cc2ccc(-c3nnc(C(F)(F)F)o3)cc2F)c2ccccc2)CC1` [Compound 11300, N-(2-fluoro-4-(5-(trifluoromethyl)-1,3,4-oxadiazol-2-yl)benzyl)-4-isopropyl-N-phenylpiperazine-1-sulfonamide], the “HDAC6 selectivity (fold)” value worked out at 861 fold and the concentration for half-maximal inhibition (IC50) was 116 nM.
As to `O=S1(=O)CCN(S(=O)(=O)N(Cc2ccc(-c3nnc(C(F)F)o3)cn2)c2ccccc2)CC1` [Compound 11440, N-((5-(5-(difluoromethyl)-1,3,4-oxadiazol-2-yl)pyridin-2-yl)methyl)-N-phenylthiomorpholine-4-sulfonamide 1,1-dioxide], the “HDAC6 selectivity (fold)” value was 5000 fold and the IC50 stood at 20 nM.
Take `CC(=O)N1CCN(S(=O)(=O)N(Cc2ccc(-c3nnc(C(F)F)o3)cc2F)c2cccc(F)c2)CC1` [Compound 11315, 4-acetyl-N-(4-(5-(difluoromethyl)-1,3,4-oxadiazol-2-yl)-2-fluorobenzyl)-N-(3-fluorophenyl)piperazine-1-sulfonamide]: the “HDAC6 selectivity (fold)” value turned out to be 3367 fold and the IC50 turned out to be 30 nM.
With `CN1CCN(S(=O)(=O)N(Cc2ccc(-c3nnc(C(F)F)o3)cc2F)c2cccc(F)c2)CC1` [Compound 11316, N-(4-(5-(difluoromethyl)-1,3,4-oxadiazol-2-yl)-2-fluorobenzyl)-N-(3-fluorophenyl)-4-methylpiperazine-1-sulfonamide], the “HDAC6 selectivity (fold)” value stood at 4031 fold and the IC50 worked out at 25 nM.
As for `CCN1CCN(S(=O)(=O)N(Cc2ccc(-c3nnc(C(F)(F)F)o3)cc2F)c2ccccc2)CC1` [Compound 11299, 4-ethyl-N-(2-fluoro-4-(5-(trifluoromethyl)-1,3,4-oxadiazol-2-yl)benzyl)-N-phenylpiperazine-1-sulfonamide], the “HDAC6 selectivity (fold)” value is recorded as 1169 fold and the IC50 was 86 nM.
As to `CC(=O)N1CCN(S(=O)(=O)N(Cc2ccc(-c3nnc(C(F)(F)F)o3)cc2F)c2ccccc2)CC1` [Compound 11294, 4-acetyl-N-(2-fluoro-4-(5-(trifluoromethyl)-1,3,4-oxadiazol-2-yl)benzyl)-N-phenylpiperazine-1-sulfonamide], the “HDAC6 selectivity (fold)” value is 1411 fold and the IC50 is 71 nM.
As to `CCCN1[C@H](C)CN(S(=O)(=O)N(Cc2ccc(-c3nnc(C(F)F)o3)cc2)c2ccccc2)C[C@@H]1C` [Compound 11642, (3S,5R)—N-(4-(5-(difluoromethyl)-1,3,4-oxadiazol-2-yl)benzyl)-3,5-dimethyl-N-phenyl-4-propylpiperazine-1-sulfonamide], the “HDAC6 selectivity (fold)” value is 287 fold and the IC50 stood at 348 nM.
On to `Cc1cccc(N(Cc2ccc(-c3nnc(C(F)F)o3)cn2)S(=O)(=O)N2CCN(C3COC3)[C@H](C)C2)c1` [Compound 11824, (R)—N-((5-(5-(difluoromethyl)-1,3,4-oxadiazol-2-yl)pyridin-2-yl)methyl)-3-methyl-4-(oxetan-3-yl)-N-(m-tolyl)piperazine-1-sulfonamide], for which the “HDAC6 selectivity (fold)” value turned out to be 2000 fold and the IC50 is 50 nM.
Consider `O=S(=O)(N1CCNCC1)N(Cc1ccc(-c2nnc(C(F)(F)F)o2)cc1F)c1cccnc1` [Compound 11321, N-(2-fluoro-4-(5-(trifluoromethyl)-1,3,4-oxadiazol-2-yl)benzyl)-N-(pyridin-3-yl)piperazine-1-sulfonamide Dihydrochloride], for which the “HDAC6 selectivity (fold)” value was determined as 2249 fold and the IC50 stood at 44 nM.
`CC(C)N1CCN(S(=O)(=O)N(Cc2ccc(-c3nnc(C(F)F)o3)cc2F)c2ccccc2)CC1` [Compound 11308, N-(4-(5-(difluoromethyl)-1,3,4-oxadiazol-2-yl)-2-fluorobenzyl)-4-isopropyl-N-phenylpiperazine-1-sulfonamide]: the “HDAC6 selectivity (fold)” value amounted to 2168 fold and the IC50 was 46 nM.
The matching figures for `CC(C)N1CCN(S(=O)(=O)N(Cc2ccc(-c3nnc(C(F)F)o3)cn2)c2ccc(F)c(Cl)c2)CC1` [Compound 11670, N-(3-chloro-4-fluorophenyl)-N-((5-(5-(difluoromethyl)-1,3,4-oxadiazol-2-yl)pyridin-2-yl)methyl)-4-isopropylpiperazine-1-sulfonamide]: 4761 fold and 21 nM.
For the molecule `O=S(=O)(N1CCC2(CC1)CN(C1CCC1)C2)N(Cc1ccc(-c2nnc(C(F)F)o2)cc1)c1ccccc1` [Compound 11789, 2-cyclobutyl-N-(4-(5-(difluoromethyl)-1,3,4-oxadiazol-2-yl)benzyl)-N-phenyl-2,7-diazaspiro[3.5]nonane-7-sulfonamide], the “HDAC6 selectivity (fold)” value is given as 819 fold and the IC50 is 122 nM.
In the case of `O=S(=O)(N1CCN(C2CCC2)CC1)N(Cc1ccc(-c2nnc(C(F)F)o2)cn1)c1cccc(Cl)c1` [Compound 11831, N-(3-chlorophenyl)-4-cyclobutyl-N-((5-(5-(difluoromethyl)-1,3,4-oxadiazol-2-yl)pyridin-2-yl)methyl)piperazine-1-sulfonamide], the “HDAC6 selectivity (fold)” value is recorded as 2777 fold and the IC50 stood at 36 nM.
Take `CN1CCN(S(=O)(=O)N(Cc2ccc(-c3nnc(C(F)F)o3)cn2)c2ccccc2)CC1` [Compound 11363, N-((5-(5-(difluoromethyl)-1,3,4-oxadiazol-2-yl)pyridin-2-yl)methyl)-4-methyl-N-phenylpiperazine-1-sulfonamide]: the “HDAC6 selectivity (fold)” value was 6863 fold and the IC50 turned out to be 15 nM.
As to `CN1CCN(S(=O)(=O)N(Cc2ccc(-c3nnc(C(F)(F)F)o3)cc2F)c2cccc(F)c2)CC1` [Compound 11312, N-(2-fluoro-4-(5-(trifluoromethyl)-1,3,4-oxadiazol-2-yl)benzyl)-N-(3-fluorophenyl)-4-methylpiperazine-1-sulfonamide], the “HDAC6 selectivity (fold)” value is on record as 1371 fold and the IC50 amounted to 73 nM.
With `O=S(=O)(N1CCOCC1)N(Cc1ccc(-c2nnc(C(F)(F)F)o2)cc1)c1ccc(F)cc1` [Compound 11198, N-(4-fluorophenyl)-N-(4-(5-(trifluoromethyl)-1,3,4-oxadiazol-2-yl)benzyl)morpholine-4-sulfonamide], the “HDAC6 selectivity (fold)” value came to 738 fold and the IC50 is 136 nM.
